Results as given in patent US9963462B2 (priority 2015, dated 2018).

Key:
[1] = system: BH4 levels in SK-N-BE (2) cells; assay: SKN-N-BE (2) cellular assay, BH4 levels by LC-MS; type: cell-based; settings: Homo sapiens, SKNBE2, read-out: SK-N-BE(2) IC50, SK-N-BE (2) cells, BH4 levels by LC-MS
[2] = target: SNAP-hSPR (sepiapterin reductase, SPR) (Homo sapiens, UniProt P35270); assay: biochemical; type: binding; settings: terbium labelled SNAP-hSPR / SSZ labelled SNAP-EGFP; read-out: hTR-FRET IC50
SNAP-hSPR (sepiapterin reductase, SPR), sequence (P35270 whole entry): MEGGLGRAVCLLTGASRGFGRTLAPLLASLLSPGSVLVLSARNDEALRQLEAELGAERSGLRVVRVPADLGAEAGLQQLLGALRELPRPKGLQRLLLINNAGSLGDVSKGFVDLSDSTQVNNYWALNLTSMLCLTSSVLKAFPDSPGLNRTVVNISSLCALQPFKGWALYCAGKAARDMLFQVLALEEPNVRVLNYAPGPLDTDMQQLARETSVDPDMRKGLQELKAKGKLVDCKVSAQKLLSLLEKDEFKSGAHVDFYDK

Row | Compound | IC50 [1] | IC50 [2]
1 | Cc1c(C(=O)N2CCN(C)CC2)cnn1-c1nc2c(c(=O)[nH]1)CCC2 [Q-0722] | 3.3 µM | 0.02 µM
2 | COC1CCN(C(=O)c2cnn(-c3nc4c(c(=O)[nH]3)CCC4)c2C)CC1 [Q-0461] | 0.4 µM | 0.003 µM
3 | Cc1c(C(=O)N2CC3CC(=O)CC3C2)cnn1-c1nn2cccc2c(=O)[nH]1 (centres unmarked) [Q-0824] | 1.8 µM | 0.005 µM
4 | O=c1[nH]c(-n2cc(OC3CCCC3)cn2)nc2c1CCC2 [Q-0529] | 0.1 µM | 0.01 µM
5 | Cc1nn(-c2nc3ccsc3c(=O)[nH]2)c(C)c1C(=O)N1CCC(C(F)(F)F)CC1 [Q-0419] | 0.7 µM | 0.005 µM
6 | Cc1c(C(=O)N2CC3COCC(C3)C2)cnn1-c1nc2ccsc2c(=O)[nH]1 [Q-0602] | 1.2 µM | 0.02 µM
7 | Cc1cc(=O)[nH]c(-n2nc(C)c(CCC(=O)Nc3ccc(Cl)cc3)c2C)n1 [Q-0009] | 22 µM | 0.3 µM
8 | CCN(C)C(=O)c1cnn(-c2nc(C)cc(=O)[nH]2)c1C [Q-0350] | 11 µM | 0.02 µM
9 | Cc1c(C(=O)N2CC3(CCCN3C(=O)OC(C)(C)C)C2)cnn1-c1nn2cccc2c(=O)[nH]1 [Q-0785] | 0.2 µM | 0.001 µM
10 | Cc1cc(=O)[nH]c(-n2ccc(C(=O)NC3CCCC3)n2)n1 [Q-0333] | 12 µM | 0.02 µM
11 | Cc1cc(=O)[nH]c(-n2ccc(C(=O)N3CCOCC3)n2)n1 [Q-0343] | 40 µM | 0.1 µM
12 | Cc1c(C(=O)N2CC3(CCN(C(=O)OC(C)(C)C)C3)C2)cnn1-c1nn2cccc2c(=O)[nH]1 [Q-0762] | 0.2 µM | 0.002 µM
13 | Cc1nn(-c2nc3ccsc3c(=O)[nH]2)c(C)c1C(=O)N1CCC(C)(C)C1 [Q-0411] | 2.7 µM | 0.009 µM
14 | Cc1c(C(=O)N(CCc2ccccc2)CC(O)C(F)(F)F)cnn1-c1nc2c(c(=O)[nH]1)CCC2 (centres unmarked) [Q-0502] | 0.4 µM | 0.02 µM
15 | Cc1cc2nc(-n3ncc(C(=O)N4CCC(C(F)(F)F)CC4)c3C)[nH]c(=O)c2s1 [Q-0409] | 25 µM | 0.2 µM
16 | Cc1c(C(=O)N2CCC(c3c[nH]c4ccccc34)CC2)cnn1-c1nn2cccc2c(=O)[nH]1 [Q-0585] | 0.033 µM | 0.006 µM
17 | Cc1c(C(=O)N2CCC(C(F)(F)F)CC2)cnn1-c1nc2c(c(=O)[nH]1)CCCC2 [Q-0425] | 2.1 µM | 0.03 µM
18 | Cc1c(C(=O)N2CCC(c3c[nH]c4ccccc34)CC2)cnn1-c1nc2c(c(=O)[nH]1)CCC2 [Q-0498] | 0.03 µM | 0.02 µM
19 | Cc1c(C(=O)N2CCN(c3ccc(F)cc3F)CC2)cnn1-c1nn2cccc2c(=O)[nH]1 [Q-0715] | 0.097 µM | 0.002 µM
20 | CCN1CCN(C(=O)c2cnn(-c3nc(C)c(C)c(=O)[nH]3)c2C)CC1 [Q-0282] | 4.4 µM | 0.03 µM
21 | Cc1cc(=O)[nH]c(-n2ncc(C(=O)NCC(F)(F)C(F)(F)F)c2C)n1 [Q-0364] | 16 µM | 0.07 µM
22 | Cc1c(C(=O)N2c3ccccc3C[C@@H]2C)cnn1-c1nc2ccsc2c(=O)[nH]1 (single isomer, unassigned) [Q-0415] | 1.2 µM | 0.03 µM
23 | Cc1cc(=O)[nH]c(-n2ncc(C(=O)N3CCOCC3)c2C(F)F)n1 [Q-0349] | 57 µM | 0.03 µM

Row | Compound | IC50 [1] | IC50 [2]
24 | O=C(O)c1ccnc(-c2nc3ccsc3c(=O)[nH]2)c1 [Q-0547] | 10 µM | 2.3 µM
25 | Cc1c(C(=O)N2CC3COCC(C3)C2)cnn1-c1nc2c(c(=O)[nH]1)CCC2 [Q-0569] | 0.3 µM | 0.01 µM
26 | Cc1cc(=O)[nH]c(-n2ncc(C(=O)N3CCOCC3)c2C)n1 [Q-0352] | 13 µM | 0.02 µM
27 | Cc1c(C(=O)N2CCC(C#N)(c3ccccc3)CC2)cnn1-c1nc2sccc2c(=O)[nH]1 [Q-0561] | 0.011 µM | 0.004 µM
28 | Cc1c(C(=O)N2CCC(c3c[nH]c4cc(F)ccc34)CC2)cnn1-c1nc2c(c(=O)[nH]1)CCC2 [Q-0565] | 0.011 µM | 0.006 µM
29 | CCCN(C)C(=O)c1cnn(-c2nc(C)cc(=O)[nH]2)c1C [Q-0346] | 5.3 µM | 0.008 µM
30 | Cc1cc(=O)[nH]c(-n2ncc(C(=O)N3CCC(C)(C)C3)c2CC(C)C)n1 [Q-0371] | 14 µM | 0.07 µM
31 | Cc1c(C(=O)N2CCC(C(F)(F)F)CC2)cnn1-c1nc2sccc2c(=O)[nH]1 [Q-0410] | 0.2 µM | 0.002 µM
32 | O=C(c1cnn(-c2nc3c(c(=O)[nH]2)CCC3)c1)N1CCC(C2CC2)CC1 [Q-0706] | 0.03 µM | 0.002 µM
33 | Cc1c(C(=O)N2CCC[C@H](C(F)(F)F)C2)cnn1-c1nc2c(c(=O)[nH]1)CCC2 (single isomer, unassigned) [Q-0475] | 0.3 µM | 0.005 µM
34 | Cc1c(C(=O)N2CC3CC3(O)C2)cnn1-c1nc2ccsc2c(=O)[nH]1 (centres unmarked) [Q-0621] | 5.2 µM | 0.02 µM
35 | Cc1nc(-n2ncc(C(=O)N3c4ccccc4C[C@H]3C)c2C)[nH]c(=O)c1C (single isomer, unassigned) [Q-0416] | 2.8 µM | 0.02 µM
36 | Cc1c(C(=O)N2CCC(C(F)(F)F)CC2)nnn1-c1nn2cccc2c(=O)[nH]1 [Q-0832] | 0.2 µM | 0.001 µM
37 | O=C(c1cnn(-c2nn3cccc3c(=O)[nH]2)c1)N1CCC(S(=O)(=O)c2ccc(F)c(F)c2)CC1 [Q-0716] | 0.4 µM | 0.002 µM
38 | Cc1c(C(=O)N2CCN(c3ccc(C#N)cn3)CC2)cnn1-c1nn2cccc2c(=O)[nH]1 [Q-0845] | 0.4 µM | 0.003 µM
39 | Cc1c(C(=O)N2CC[C@H]3CCCC[C@H]3C2)cnn1-c1nc2ccsc2c(=O)[nH]1 [Q-0402] | 0.041 µM | 0.01 µM
40 | CCC1(C#N)CCN(C(=O)c2cnn(-c3nc4c(c(=O)[nH]3)CCC4)c2)CC1 [Q-0725] | 0.1 µM | 0.001 µM
41 | Cc1c(C(=O)N2CCC(C(F)(F)F)CC2C)cnn1-c1nc2ccsc2c(=O)[nH]1 (centres unmarked) [Q-0422] | 0.2 µM | 0.003 µM
42 | Cc1c(C(=O)N2CCC(c3c[nH]c4ccccc34)CC2)ccnc1-c1nc2ccsc2c(=O)[nH]1 [Q-0594] | 3.6 µM | 0.3 µM
43 | CC1CCN(C(=O)c2cnn(-c3nn4cccc4c(=O)[nH]3)c2C2CC2)CC1 [Q-0757] | 0.2 µM | 0.002 µM
44 | Cc1c(C(=O)N2CCC(c3c[nH]c4ccccc34)CC2)cnn1-c1nc2sccc2c(=O)[nH]1 [Q-0573] | 0.035 µM | 0.003 µM
45 | Cc1c(C(=O)N2C[C@@H]3CCN(C(=O)OC(C)(C)C)C[C@@H]32)cnn1-c1nn2cccc2c(=O)[nH]1 [Q-0790] | 1.4 µM | 0.007 µM
46 | Cc1c(C(=O)N2CCC3(CCNC3=O)CC2)cnn1-c1nn2cccc2c(=O)[nH]1 [Q-0848] | 10 µM | 0.002 µM

Row | Compound | IC50 [1] | IC50 [2]
47 | Cc1c(C(=O)N2CC3CN(c4ccccc4)CC3C2)cnn1-c1nn2cccc2c(=O)[nH]1 (centres unmarked) [Q-0846] | 0.2 µM | 0.002 µM
48 | Cc1c(C(=O)N2CCN(C(=O)OC(C)(C)C)CC23CCC3)cnn1-c1nn2cccc2c(=O)[nH]1 [Q-0798] | 0.3 µM | 0.002 µM
49 | O=C(c1cnn(-c2cc3ccsc3c(=O)[nH]2)c1)N1CCC(C(F)(F)F)CC1 [Q-0511, 5-{4-[4-(trifluoromethyl)piperidine-1-carbonyl]-1H-pyrazol-1-yl}-6H,7H-thieno[2,3-c]pyridin-7-one] | 0.3 µM | 0.003 µM
50 | Cc1cc(=O)[nH]c(-n2ncc(CN3CCc4ccccc4C3)c2C)n1 [Q-0311] | 11 µM | 0.04 µM
51 | Cc1cc(=O)[nH]c(-n2ncc(C(=O)NC3CCCC3)c2Cc2ccccc2)n1 [Q-0370] | 22 µM | 0.1 µM
52 | O=C(c1cnn(-c2nc3sccc3c(=O)[nH]2)c1)N1CCN2CCC[C@@H]2C1 [Q-0755] | 0.5 µM | 0.004 µM
53 | Cc1c(C(=O)N2CCC(C(C)(C)C#N)CC2)cnn1-c1nn2cccc2c(=O)[nH]1 [Q-0600] | 0.057 µM | 0.001 µM
54 | Cc1cc(=O)[nH]c(-n2ncc(C(=O)NC3CCCC3)c2C(C)C)n1 [Q-0330] | 6.1 µM | 0.02 µM
55 | Cc1cc(=O)[nH]c(-n2ncc(C(=O)N3CCc4ccc(S(=O)(=O)N5CCOCC5)cc4C3)c2C)n1 [Q-0327] | 12 µM | 0.007 µM
56 | Cc1c(C(=O)N2CCC(c3ccccc3)CC2)cnn1-c1nc2c(c(=O)[nH]1)CCC2 [Q-0428] | 0.019 µM | 0.003 µM
57 | CC(C#N)C1CCN(C(=O)c2cnn(-c3nc4c(c(=O)[nH]3)CCC4)c2C2CC2)CC1 (centres unmarked) [Q-0578] | 0.7 µM | 0.008 µM
58 | Cc1c(C(=O)N2CCC(C(F)(F)F)CC2)cnn1-c1nc2ccccc2c(=O)[nH]1 [Q-0429] | 49 µM | 0.1 µM
59 | Cc1cc(=O)[nH]c(-n2ncc(C(=O)NC3CCc4ccccc43)c2C)n1 (centres unmarked) [Q-0363] | 5.8 µM | 0.03 µM
60 | Cc1c(C(=O)N2CC(c3ccc(F)c(F)c3)C2)cnn1-c1nn2cccc2c(=O)[nH]1 [Q-0771] | 0.2 µM | 0.001 µM
61 | Cc1cc(=O)[nH]c(-n2ncc(C(=O)N3CCc4cn[nH]c4C3)c2C)n1 [Q-0328] | 53 µM | 0.01 µM
62 | Cc1c(C(=O)N2CCC(C(F)(F)F)CC2)cnn1-c1nc2c(c(=O)[nH]1)CC2 [Q-0765] | 0.3 µM | 0.005 µM
63 | Cc1c(C(=O)N2[C@H](C)CCC[C@@H]2C)cnn1-c1nc2ccsc2c(=O)[nH]1 [Q-0417] | 0.9 µM | 0.004 µM
64 | Cc1c(C(=O)N2CCC3(CC2)CC(F)(F)C3)cnn1-c1nc2c(c(=O)[nH]1)CCC2 [Q-0691] | 0.091 µM | 0.002 µM
65 | CN[C@@H]1CCN(C(=O)c2cnn(-c3nc4ccsc4c(=O)[nH]3)c2C)C1 [Q-0584] | 10 µM | 0.2 µM
66 | O=C(c1cnn(-c2nc3sccc3c(=O)[nH]2)c1)N1CCC(C(F)(F)F)CC1 [Q-0753] | 0.2 µM | 0.002 µM
67 | Cc1cc(=O)[nH]c(-n2ncc(C(=O)NC3CCCC3)c2C(F)F)n1 [Q-0331] | 15 µM | 0.08 µM
